From US12642766B2, “EDB-FN as biomarker of cancer and/or brain disease and nanodrug delivery system targeting same” (KOREA UNIVERSITY RESEARCH AND BUSINESS FOUNDATION, priority 2020, dated 2026)
Ends that are not written are not given here.

Columns and labels:
[1] = tested on: EDB-FN; test: siRNA-mediated EDB-FN knockdown confirmed by qRT-PCR; assay type: cell-based, human; conditions: U87MG cells; GAPDH internal control; control siRNA 1.00±0.08
Protocol: Cells were collected, and ribonucleic acid (RNA) was extracted with RiboEx using an RNA isolation kit (GeneAll, Seoul, Republic of Korea). Complementary DNA (cDNA) was synthesized by reverse transcription using a total of 1 μg of RNA from each sample. As a result, the following genes were estimated: EDB-FN gene (forward primer: 5′-[…]-3′; reverse primer: 5′-[…]-3′); glyceraldehyde 3-phosphate dehydrogenase) gene (forward primer: 5′-[…]-3′; reverse primer: 5′-[…]-3′. The polymerase chain reaction protocol was as follows: initial denaturation at 94° C. for 5 min; 30 repetitions of denaturation at 94° C. for 1 min, primer annealing at 55° C. for 1 min, and extension at 72° C. for 2 min; and final extension at 72° C. for 7 min 1 μg of cDNA was added to 4 μL of ultrapure water, 5 μL of SYBR Green real-time mixture (Takara, Tokyo, Japan) was added before performing a real-time polymerase chain reaction (Qiagen, Tokyo, Japan). The messenger RNA (mRNA) level of each gene was quantified using the 2^−ΔΔ^Ct method and normalized with the messenger RNA of glyceraldehyde 3-phosphate dehydrogenase.
EDB-FN-specific siRNA and scrambled control siRNA were purchased from Bioneer (Daejeon, Republic of Korea). The target sequence of EDB-FN siRNA used for RNA interference is as follows: sense; […], antisense; […]. […] Transfection efficacy was analyzed after 48 hours.

[2] = target: EDB-FN (Homo sapiens, UniProt P02751); conditions: read-out: affinity of binding to EDB-FN; cited from earlier work
Chain of EDB-FN (Homo sapiens, UniProt P02751) (P02751 32-2477): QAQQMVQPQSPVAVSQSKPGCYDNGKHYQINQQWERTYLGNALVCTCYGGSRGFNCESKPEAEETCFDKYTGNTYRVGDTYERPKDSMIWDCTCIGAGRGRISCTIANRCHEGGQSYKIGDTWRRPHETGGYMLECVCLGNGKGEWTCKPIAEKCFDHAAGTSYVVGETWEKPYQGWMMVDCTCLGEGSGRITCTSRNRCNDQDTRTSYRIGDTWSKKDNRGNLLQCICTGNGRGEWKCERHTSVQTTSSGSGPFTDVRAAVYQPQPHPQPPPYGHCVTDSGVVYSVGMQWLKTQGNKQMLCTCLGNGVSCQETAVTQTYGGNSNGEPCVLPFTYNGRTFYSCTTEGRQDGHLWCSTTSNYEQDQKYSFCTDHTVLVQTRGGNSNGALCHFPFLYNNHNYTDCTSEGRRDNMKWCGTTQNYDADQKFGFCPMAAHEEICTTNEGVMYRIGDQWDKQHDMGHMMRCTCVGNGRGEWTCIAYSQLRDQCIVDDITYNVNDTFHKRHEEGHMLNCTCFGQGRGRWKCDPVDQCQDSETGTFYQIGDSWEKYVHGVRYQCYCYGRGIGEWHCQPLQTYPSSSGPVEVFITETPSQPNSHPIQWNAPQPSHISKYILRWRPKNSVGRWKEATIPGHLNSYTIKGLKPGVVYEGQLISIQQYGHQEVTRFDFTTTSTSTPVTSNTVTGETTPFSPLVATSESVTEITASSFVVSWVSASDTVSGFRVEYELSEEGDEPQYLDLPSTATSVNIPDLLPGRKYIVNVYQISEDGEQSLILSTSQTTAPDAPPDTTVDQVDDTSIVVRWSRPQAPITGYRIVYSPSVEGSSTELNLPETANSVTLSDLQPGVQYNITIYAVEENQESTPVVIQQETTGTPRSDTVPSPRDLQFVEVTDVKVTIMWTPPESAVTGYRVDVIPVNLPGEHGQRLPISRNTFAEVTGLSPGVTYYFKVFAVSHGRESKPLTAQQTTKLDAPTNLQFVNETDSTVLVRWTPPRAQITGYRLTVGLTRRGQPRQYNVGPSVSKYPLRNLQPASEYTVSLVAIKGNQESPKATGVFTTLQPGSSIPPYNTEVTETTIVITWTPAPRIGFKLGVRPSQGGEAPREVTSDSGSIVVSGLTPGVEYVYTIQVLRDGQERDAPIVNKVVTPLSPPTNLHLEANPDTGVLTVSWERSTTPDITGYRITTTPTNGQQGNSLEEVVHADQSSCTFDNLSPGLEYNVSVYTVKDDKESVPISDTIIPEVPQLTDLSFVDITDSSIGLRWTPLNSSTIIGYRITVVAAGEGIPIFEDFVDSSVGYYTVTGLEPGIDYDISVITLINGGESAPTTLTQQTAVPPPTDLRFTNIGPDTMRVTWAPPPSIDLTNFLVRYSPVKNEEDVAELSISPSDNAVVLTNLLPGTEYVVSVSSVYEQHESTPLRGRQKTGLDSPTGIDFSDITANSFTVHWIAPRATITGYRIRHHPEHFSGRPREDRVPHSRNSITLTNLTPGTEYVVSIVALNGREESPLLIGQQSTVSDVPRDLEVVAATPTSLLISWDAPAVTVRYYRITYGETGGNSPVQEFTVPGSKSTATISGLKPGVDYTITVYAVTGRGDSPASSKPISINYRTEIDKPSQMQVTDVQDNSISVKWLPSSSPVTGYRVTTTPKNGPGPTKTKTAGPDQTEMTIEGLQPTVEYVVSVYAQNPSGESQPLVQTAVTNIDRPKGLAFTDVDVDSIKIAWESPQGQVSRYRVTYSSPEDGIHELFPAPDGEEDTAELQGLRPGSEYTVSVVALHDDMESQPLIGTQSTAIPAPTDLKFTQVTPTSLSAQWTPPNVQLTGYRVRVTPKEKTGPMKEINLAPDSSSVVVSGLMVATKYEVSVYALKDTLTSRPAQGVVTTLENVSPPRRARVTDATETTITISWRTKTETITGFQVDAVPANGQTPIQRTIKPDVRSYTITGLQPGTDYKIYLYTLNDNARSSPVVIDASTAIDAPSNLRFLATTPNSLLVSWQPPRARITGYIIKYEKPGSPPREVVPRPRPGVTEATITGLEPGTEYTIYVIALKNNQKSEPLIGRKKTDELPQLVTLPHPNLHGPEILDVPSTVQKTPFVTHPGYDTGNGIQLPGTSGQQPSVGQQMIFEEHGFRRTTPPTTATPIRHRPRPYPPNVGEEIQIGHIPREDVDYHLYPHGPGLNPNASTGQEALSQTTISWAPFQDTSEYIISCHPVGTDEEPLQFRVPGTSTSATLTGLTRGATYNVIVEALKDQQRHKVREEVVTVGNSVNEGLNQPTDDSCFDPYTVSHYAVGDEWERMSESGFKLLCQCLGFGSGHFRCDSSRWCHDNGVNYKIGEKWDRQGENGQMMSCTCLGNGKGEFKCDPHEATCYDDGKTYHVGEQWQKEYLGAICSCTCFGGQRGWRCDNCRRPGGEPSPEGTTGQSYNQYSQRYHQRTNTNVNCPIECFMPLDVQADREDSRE

Substance | EDB-FN expression (qRT-PCR) [1] | Kd [2] [nM]
EDB-FN siRNA: EDB-FN-specific siRNA; sense ACAGUCCCAGAUCAUGGAG, antisense CUCCAUGAUCUGGGACUGU (chemistry not given here) | 0.45±0.01 | 
N′-CSSPIQGSWTWENGK(C)WTWGIIRLEQ-C′ (CSSPIQGSWTWENGK(Cys)WTWGIIRLEQ; listed as Homo sapiens) [APTEDB, EDB-FN-specific aptamer-like peptide (aptide)] |  | < 100
